Earlier results as cited in US20070231385A1, “Controlled Release Pharmaceutical Composition and a Process for Preparing the Same” (Lupin Limited, priority 2003, published 2007).

Conditions: background statement

Cc1ccnc2c1NC(=O)c1cccnc1N2C1CC1 [Nevaripine]
serum half-life: more than 25 hours
